This note sets out measurements from ChEMBL document CHEMBL5154913, “Phenyl Bis-Sulfonamide Keap1-Nrf2 Protein-Protein Interaction Inhibitors with an Alternative Binding Mode” (J Med Chem, 2022).

For orientation: solubility means the dissolved amount per volume that the medium holds.

In brackets after ≈: the same amount, converted by molar mass.

One series concerns ARPE-19. Nature of the series: Cytotoxicity against human ARPE-19 cells assessed as reduction in cell viability at 1 uM incubated for 96 hrs by MTT assay relative to control. It counts as toxicity, cell-based. As to conditions: arpe-19, 96 h. (In general: Formazan colour is commonly taken as a measure of viable cells.)
Series [1] is described as follows: Aqueous solubility of the compound at pH 7.4. It counts as physicochemical. The following applies: aqueous medium.
The nature of series [2]: Permeability of the compound across artificial membrane by IAM binding assay. It is filed as ADME.

Take `COC(=O)[C@]12CCC(C)(C)C[C@H]1[C@H]1C(=O)C=C3[C@@]4(C)C=C(C#N)C(=O)C(C)(C)[C@@H]4CC[C@@]3(C)[C@]1(C)CC2` [BARDOXOLONE METHYL]: the Activity entry in the series with ARPE-19 is on record as “Toxic”. On to `COc1ccc(S(=O)(=O)N(CC(=O)O)c2ccc(N(CC(=O)O)S(=O)(=O)c3ccc(OC)cc3)c(OCc3ccccc3)c2)cc1`, for which the solubility in series [1] was found to be 348 µg/mL (≈ 519 µM).

As for `COc1ccc(S(=O)(=O)N(CC(=O)O)c2ccc(N(CC(=O)O)S(=O)(=O)c3ccc(OC)cc3)c(OCc3cccc(OC)c3)c2)cc1`, the “log K” value in series [2] came to 1.83.
